Measured values published in US20230100062A1, “ANTIMICROBIAL PEPTIDES” (priority 2019, published 2023).
Values after ≈ are worked out from the molar mass of the structure shown. Square brackets hold non-standard residues; d marks the D form. Ends that are not written are not given here. * marks the point of attachment. For = O=C*

Key:
mammalian cells lines = conditions: cited from earlier work
Hemolysis assay = format: cell-based, human; conditions: human, human erythrocytes, 10% (vol/vol) suspension, pH 7.2
Experimental: (§1) Hemolysis assay. Hemolysis was determined using human erythrocytes sourced commercially from Cambridge Bioscience Ltd. and used within two days. 10% (vol/vol) suspensions of human erythrocytes were incubated with NI01, its derivatives or antibiotics. The cells were rinsed four times in 10 mM phosphate buffer saline (PBS, GibcoTM), pH 7.2, by repeated centrifugation and re-suspension (3 min at 3000×g). The cells were then incubated at room temperature for 1 h in either deionized water (fully hemolysed control), PBS, or with a corresponding antimicrobial agent in PBS. After centrifugation at 10,000×g for 5 min, the supernatant was separated from the pellet, and the absorbance was measured at 550 nm using a SpectraMax i3× Multi-Mode Microplate Reader (Molecular Devices). Absorbance of the suspension treated with deionized water defined complete hemolysis. The values given in Table S2 correspond to concentrations needed to lyse half of the sample population (50% lysis of erythrocytes) and are expressed as median hemolytic doses—HD50.

Human erythrocytes = experiment: Hemolysis assay; format: cell-based
Experimental: as §1

M. luteus (ATCC 49732) = experiment: microbe, parasite or virus in culture; format: cell-based
Experimental: (§2) Minimum Inhibitory Concentrations assay. Minimum inhibitory concentrations (MICs) were determined by broth microdilution on P. aeruginosa, E. coli, S. aureus, M. luteus, B. subtilis, S. typhimurium and K. pneumoniae according to the Clinical and Laboratory Standards Institute. Typically, 100 μL of 0.5-1×10^6 CFU per ml of each bacterium in Mueller Hinton media broth (Oxoid) were incubated in 96-well microtiter plates with 100 μL of serial two-fold dilutions of the corresponding antimicrobial agent (from 100 to 0 μM) at 37° C. on a 3D orbital shaker. The absorbance was measured after the addition of NI01, its derivatives or an antibiotic at 600 nm using a SpectraMax i3× Multi-Mode Microplate Reader (Molecular Devices). MICs were defined as the lowest protein concentration that inhibited visible bacterial growth after 24 h at 37° C.

E. coli (ATCC 15597) = experiment: microbe, parasite or virus in culture; format: cell-based
Experimental: as §2

B. subtilis (ATCC 6633) = experiment: microbe, parasite or virus in culture; format: cell-based
Experimental: as §2

[1] = tested on: P. aeruginosa (ATCC 27853); experiment: microbe, parasite or virus in culture; format: cell-based; conditions: for antibacterial activity in words: P. aeruginosa, summary of MICs
Experimental: as §2

S. aureus (ATCC 6538) = experiment: microbe, parasite or virus in culture; format: cell-based; conditions: for antibacterial activity in words: S. aureus, summary of MICs
Experimental: as §2

[2] = tested on: K. pneumoniae (NCTC 5055); experiment: microbe, parasite or virus in culture; format: cell-based
Experimental: as §2

S. typhimurium (DA6192) = experiment: Minimum inhibitory concentration, broth microdilution; format: cell-based; conditions: 24 h at 37° C.
Experimental: as §2

[3] = Thermal unfolding by CD spectroscopy; format: physicochemical; conditions: 20 μM protein, pH 7.4, 10 mM phosphate buffer
Experimental: Circular Dichroism Spectroscopy. Aqueous peptide solutions (300 μL, at a given concentration) were prepared in filtered (0.22 μm), 10 mM phosphate buffer, pH 7.4. CD spectra recorded in the presence of synthetic membranes are for L/P molar ratio of 100. All CD spectra were recorded on a JASCO J-810 spectropolarimeter fitted with a Peltier temperature controller. All measurements were taken in ellipticities in mdeg and converted to molar ellipticities by normalizing for the concentration of peptide bonds and cuvette path length ([θ], deg cm2 dmol−1 res−1). The data collected with a 1 nm step and 1 s collection time per step are presented as the average of 4 scans. Thermal denaturation curves were recorded with 2° C. intervals using 1 nm bandwidth, 180 s equilibration time for each spectrum and with 2° C./min ramp rate.

[4] = In-liquid AFM imaging of SLBs mimicking bacterial membranes; conditions: 0.25 μM
From the text: Lipid Vesicle Preparation. 1-palmitoyl-2-oleoyl-glycero-3-phosphocholine (POPC) with 1-palmitoyl-2-oleoyl-sn-glycero-3-phospho-(1′-rac-glycerol) (POPG) lipids used for vesicle construction were from Avanti Polar Lipids (Alabaster, USA). POPC was used as mammalian model membranes, and POPC/POPG (3:1, molar ratios) was used as bacterial model membranes. The lipids were weighted up, dissolved in chloroform-methanol (2:1, vol/vol), and dried under a nitrogen stream to form a thin film. The film was hydrated in 10 mM phosphate buffer (pH 7.4), vortexed for 2 min and bath sonicated for 30 min. The obtained suspension was extruded using a hand-held extruder (Avanti Polar lipids) (29 times, polycarbonate filter, 0.05 μm) to give a clear solution of small unilamellar vesicles, which were analysed (50 nm) by photon correlation spectroscopy (ZEN3600; Malvern Instruments, UK) following the re-suspension of vesicles to a final concentration of 1 mg/mL. Dynamic light scattering batch measurements were carried out in a low volume disposable cuvette at 25° C. Hydrodynamic radii were obtained through the fitting of autocorrelation data using the manufacturer's Dispersion Technology Software (version 5.10).
Preparation of SLBs for in-liquid AFM imaging. SLBs were formed using a vesicle fusion method as described elsewhere.^19 Freshly prepared vesicles (1.5 μL, 3 mg/mL) were added to cleaved mica that was pre-hydrated in 20 mM MOPS, 120 mM NaCl, 20 mM MgCl2 (pH 7.4).
After incubation over 45 min, the samples were washed 10 times with imaging buffer (20 mM MOPS, with 120 mM NaCl, pH 7.4) to remove unfused vesicles. The resulting SLBs were checked to confirm they were defect free. Mica discs (Agar Scientific, Stansted, UK) were glued to a metal puck, and freshly cleaved prior to lipid deposition.
In-liquid AFM imaging of SLBs. The topographic imaging of SLBs in aqueous buffers was performed on a Multimode 8 AFM system (Bruker AXS, USA) using Peak Force Tapping™ mode and MSNL-E cantilevers (Bruker AFM probes, USA). Images were taken at the PeakForce frequency of 2 kHz, PeakForce amplitude of 10-20 nm and PeakForce set-point of 10-30 mV (<100 pN). The images were then processed using Gwyddion (http://gwyddion.net) for line-by-line background subtraction (flattening) and plane fitting. NI01 or its derivatives were introduced into a 100-μL fluid cell (Bruker AXS, USA) to the final concentrations stated.

EMRSA (12845) = format: cell-based, S. aureus
Experimental: as §2

EMRSA (12873) = format: cell-based, S. aureus
Experimental: as §2

EMRSA (12817) = format: cell-based, S. aureus
Experimental: as §2

[5] = K. pneumoniae (NCTC 5055), 24 h at 37° C.

For-MAAFMKLIQFLATKGQKYVSLAWKHKGTILKWINAGQSFEWIYKQIKKLWA [NI01, epidermicin NI01]
toxicity towards mammalian cells lines (mammalian cells lines): negligible levels of toxicity
HC50 at 1 h (Hemolysis assay): 500 µg/mL
hemolytic activity in words (Human erythrocytes): non-hemolytic

polymyxin B [reference compound]
Minimum Inhibitory Concentration (M. luteus (ATCC 49732); M. luteus (ATCC 49732), 24 h at 37° C.): 2 µg/mL
Minimum Inhibitory Concentration (E. coli (ATCC 15597); E. coli (ATCC 15597), 24 h at 37° C.): 2 µg/mL
Minimum Inhibitory Concentration (B. subtilis (ATCC 6633); B. subtilis (ATCC 6633), 24 h at 37° C.): 4 µg/mL
Minimum Inhibitory Concentration ([1]; P. aeruginosa (ATCC 27853), 24 h at 37° C.): 2 µg/mL
Minimum Inhibitory Concentration (S. aureus (ATCC 6538); S. aureus (ATCC 6538), 24 h at 37° C.): 32 µg/mL
Minimum Inhibitory Concentration [2, 5]: 4 µg/mL
Minimum Inhibitory Concentration (S. typhimurium (DA6192)): 2 µg/mL
HD30, median hemolytic doses to achieve 50% lysis (Human erythrocytes; Human erythrocytes, 1 h at room temperature): 350 µg/mL

aureocin A53
transition midpoint (TM) of thermal unfolding [3]: ~54 °C
mode of membrane disruption (AFM) [4]: membrane thinning patches and transmembrane lesions and pores

H-MAAFMKLIQFLATKGQKYVSLAWKHKGTILKWIN-NH2 [α1α2α3]
Minimum Inhibitory Concentration (M. luteus (ATCC 49732); ATCC 49732, 24 h): 6 µg/mL
Minimum Inhibitory Concentration (E. coli (ATCC 15597); ATCC 15597, 24 h): 6 µg/mL
Minimum Inhibitory Concentration (B. subtilis (ATCC 6633); ATCC 6633, 24 h): 6 µg/mL
Minimum Inhibitory Concentration ([1]; ATCC 27853, 24 h): 12 µg/mL
Minimum Inhibitory Concentration (S. aureus (ATCC 6538); ATCC 6538, 24 h): 6 µg/mL
Minimum Inhibitory Concentration ([2]; NCTC 5055, 24 h): 20 µg/mL
Minimum Inhibitory Concentration (EMRSA (12845)): 32 µg/mL
Minimum Inhibitory Concentration (EMRSA (12873)): 32 µg/mL
Minimum Inhibitory Concentration (EMRSA (12817)): 32 µg/mL
mode of membrane disruption (AFM) [4]: two predicted modes of membrane disruption were evident
HC50 at 1 h (Hemolysis assay): 200 µg/mL

KGTILKWINAGQSFEWIYKQIKKLWA-NH2 [α3α4]
antibacterial activity in words [1]: ineffective
antibacterial activity in words (S. aureus (ATCC 6538)): equally effective
mode of membrane disruption (AFM) [4]: mixed mode of membrane disruption
HC50 at 1 h (Hemolysis assay): 150 µg/mL

MAAFMRLIQFLATRGQRYVSLAWRRRGTILRWINAGQSFEWIYRQIRRLWA-NH2 [NI01 R-mutant]
Minimum Inhibitory Concentration (M. luteus (ATCC 49732); ATCC 49732, 24 h): 2 µg/mL
Minimum Inhibitory Concentration (E. coli (ATCC 15597); ATCC 15597, 24 h): 9 µg/mL
Minimum Inhibitory Concentration (B. subtilis (ATCC 6633); ATCC 6633, 24 h): 18 µg/mL
Minimum Inhibitory Concentration ([1]; ATCC 27853, 24 h): >300 µg/mL
Minimum Inhibitory Concentration (S. aureus (ATCC 6538); ATCC 6538, 24 h): 5 µg/mL
Minimum Inhibitory Concentration ([2]; NCTC 5055, 24 h): 18 µg/mL
mode of membrane disruption (AFM) [4]: exclusively thinning patches
HC50 at 1 h (Hemolysis assay): 250 µg/mL
hemolytic activity in words (Human erythrocytes): drastically increased

QKYVSLAWKHKGTILKWINA-NH2 [α2α3]
concentration showing no hemolytic activity (Human erythrocytes): > 600 µg/mL

CC[C@H](C)[C@H](NC(=O)CN)C(=O)NCC(=O)N[C@@H](C)C(=O)N[C@H](C(=O)N[C@@H](CC(C)C)C(=O)N[C@@H](CCCCN)C(=O)N[C@H](C(=O)N[C@@H](CC(C)C)C(=O)N[C@H](C(=O)N[C@H](C(=O)NCC(=O)N[C@@H](CC(C)C)C(=O)N1CCC[C@H]1C(=O)N[C@@H](C)C(=O)N[C@@H](CC(C)C)C(=O)N[C@H](C(=O)N[C@@H](CO)C(=O)N[C@@H](Cc1c[nH]c2ccccc12)C(=O)N[C@H](C(=O)N[C@@H](CCCCN)C(=O)N[C@@H](CCCNC(=N)N)C(=O)N[C@@H](CCCCN)C(=O)N[C@@H](CCCNC(=N)N)C(=O)N[C@@H](CCC(N)=O)C(=O)N[C@@H](CCC(N)=O)C(N)=O)[C@@H](C)CC)[C@@H](C)CC)[C@@H](C)O)[C@@H](C)O)C(C)C)C(C)C [melittin]
Minimum Inhibitory Concentration [2, 5]: 9 µg/mL

CC1(C)S[C@@H]2[C@H](NC(=O)[C@H](N)c3ccccc3)C(=O)N2[C@H]1C(=O)O [ampicillin, reference compound]
MIC (M. luteus (ATCC 49732); Micrococcus luteus, ATCC49732, M. luteus (ATCC 49732), 24 h at 37° C., read-out: Minimum Inhibitory Concentration): 1 µg/mL (≈ 2.86 µM)
MIC (E. coli (ATCC 15597); Escherichia coli, ATCC15597, E. coli (ATCC 15597), 24 h at 37° C., read-out: Minimum Inhibitory Concentration): 24 µg/mL (≈ 68.7 µM)
MIC (B. subtilis (ATCC 6633); Bacillus subtilis, ATCC6633, B. subtilis (ATCC 6633), 24 h at 37° C., read-out: Minimum Inhibitory Concentration): 9 µg/mL (≈ 25.8 µM)
MIC ([1]; Pseudomonas aeruginosa, ATCC27853, P. aeruginosa (ATCC 27853), 24 h at 37° C., read-out: Minimum Inhibitory Concentration): 8 µg/mL (≈ 22.9 µM)
MIC (S. aureus (ATCC 6538); Staphylococcus aureus, ATCC6538, S. aureus (ATCC 6538), 24 h at 37° C., read-out: Minimum Inhibitory Concentration): 1 µg/mL (≈ 2.86 µM)
MIC ([2]; Klebsiella pneumoniae, NCTC5055, K. pneumoniae (NCTC 5055), 24 h at 37° C., read-out: Minimum Inhibitory Concentration): 5 µg/mL (≈ 14.3 µM)
MIC (S. typhimurium (DA6192); Salmonella enterica): 8 µg/mL (≈ 22.9 µM)

MAAFMKLIQFLATKGQKYVSLAWK-NH2 [α1α2]
antibacterial activity in words [1]: ineffective
antibacterial activity in words (S. aureus (ATCC 6538)): equally effective
mode of membrane disruption (AFM) [4]: extended petal-like pores
HC50 at 1 h (Hemolysis assay): 150 µg/mL

KYVSLAWKHKGTILKWINAGQSFEWIYKQIKKLWA-NH2 [α2α3α4]
HC50 at 1 h (Hemolysis assay): 200 µg/mL

For-[dM][dA][dA][dF][dM][dK][dL][dI][dQ][dF][dL][dA][dT][dK]G[dQ][dK][dY][dV][dS][dL][dA][dW][dK][dH][dK]G[dT][dI][dL][dK][dW][dI][dN][dA]G[dQ][dS][dF][dE][dW][dI][dY][dK][dQ][dI][dK][dK][dL][dW][dA] [NI01 D-form]
mode of membrane disruption (AFM) [4]: strikingly similar pattern to that of the all-L form
HC50 at 1 h (Hemolysis assay): 600 µg/mL
hemolytic activity in words (Human erythrocytes): non-hemolytic
